What was measured:
[1] = target: T1, LPAR1 (Homo sapiens, UniProt Q92633); test: LPAR1 Arrestin Assay (arrestin reporter assay); assay type: cell-based; details: U2OS cells stably expressing the LPAR1 receptor, 200 nM 18:1 LPA (EC80); for Emax: read-out: Maximum Inhibition
T1 construct: host or cells: U2OS
Method: One day prior to the experiment, frozen U2OS cells stably expressing the LPAR1 receptor (Life Technologies, Grand Island, N.Y., #K1519A) were thawed, centrifuged at 1,000 rpm for 5 minutes to remove DMSO, and resuspended in FreeStyle™ media (Gibco, Grand Island, N.Y.). Forty microliters of cells were plated into PDL-coated 384-well plates (Greiner Bio-One, Monroe, N.C.) at 10,000 cells/well, and then the plates were incubated overnight in humidified 5% CO2 at 37° C. Test compounds were dissolved in DMSO, and 12-point, 1:3 dilution CRCs were prepared in duplicate; daughter plates were prepared by aliquoting 0.8 μL/well of test compound dilutions into 384-well plates. On the day of the assay, the daughter plates were diluted to 6× stocks using HEPES-buffered HBSS, then 10 μL of 6× test compounds were added to the cells, and the plates were incubated at 37° C. for one hour. After this 1 hour incubation, 10 μL of a 6× stock of the LPAR1 agonist, 18:1 LPA (Avanti Polar Lipids, Alabaster, Ala.), was prepared in HEPES-buffered HBSS+0.1% fatty acid-free BSA (Sigma, St. Louis, Mo.). The 6×LPA was added to all wells for a final concentration of 200 nM, which corresponds to the 18:1 LPA EC80 in this arrestin assay. The final DMSO concentration in the assay plate was 0.1%, and the final BSA concentration was 0.02%. After addition of LPA to all wells, the assay plates were incubated in humidified 5% CO2 at 37° C. for five hours. During the incubation period, 6× dye from the LiveBLAzer™-FRET B/G with CCF4-AM kit (Life Technologies, Grand Island, N.Y.) was prepared according to manufacturers' instructions. At the end of the 5 hour compound incubation, 10 μL of 6× dye was added to each well, and the assay plate was incubated for two hours in the dark at room temperature. Throughout the assay procedure, all volume additions were performed with a Biomek® NX liquid handler (Beckman Coulter, Indianapolis, Ind.). After the 2 hour dye-load, fluorescence was measured on an EnVision® Multilabel Plate Reader (Perkin Elmer, Waltham, Mass.) with an excitation filter at 409/20 nm and emission filters at 460/40 nm and 530/30 nm. Data processing was performed as recommended by the LiveBLAzer™-FRET B/G with CCF4-AM kit manual; all test compound CRCs were performed in duplicate with n≥3.

[2] = system: LPA-induced MCP-1 in NRK-49F cells; test: LPA-induced MCP-1 AlphaLISA assay; assay type: cell-based; details: Rattus norvegicus, final LPA 10 μM, 7 hours; for Emax: read-out: Maximum Inhibition
In short: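 NRK-49F rat fibroblasts, serum-starved overnight, pretreated with compound for 30 min at 37 °C (1% DMSO final), then stimulated with 10 μM LPA final. MCP-1 in the supernatant was measured by mouse/rat CCL2 AlphaLISA. IC50 values came from four-parameter logistic fits of the ratio data.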

T1 sequence (Q92633 whole entry): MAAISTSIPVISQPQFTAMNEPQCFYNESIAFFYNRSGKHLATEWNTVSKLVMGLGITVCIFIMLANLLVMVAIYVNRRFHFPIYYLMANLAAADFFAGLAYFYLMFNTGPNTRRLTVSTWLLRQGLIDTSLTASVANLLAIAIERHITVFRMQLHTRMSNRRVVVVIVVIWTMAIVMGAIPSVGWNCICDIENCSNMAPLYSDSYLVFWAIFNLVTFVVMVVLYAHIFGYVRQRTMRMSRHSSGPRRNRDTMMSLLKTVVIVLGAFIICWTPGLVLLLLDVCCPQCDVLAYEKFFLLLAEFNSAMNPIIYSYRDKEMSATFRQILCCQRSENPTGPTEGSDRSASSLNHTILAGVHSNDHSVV

Row | SMILES | IC50 [1] [nM] | Emax [1] [%] | IC50 [2] [nM] | Emax [2] [%]
1 | COc1cc(C(=O)N(CCCc2ccccc2)CCC[C@@H](C)C(=O)O)cc(OC)c1C (single isomer, unassigned) [Example 77] | 5 | 102 | 60 | 92
2 | COc1cc(C(=O)N(CCCc2ccccc2)CC(=O)NC2(C(=O)O)CC2)cc(OC)c1C [Example 3, 1-{[N-(3,5-dimethoxy-4-methylbenzoyl)-N-(3-phenylpropyl)glycyl]amino}cyclopropane-1-carboxylic Acid] | 2230 | 110 | 3120 | 74
3 | COc1cc(C(=O)N(CCCCC(=O)O)CCCc2ccccc2)cc(OC)c1C [Example 4, 5-[(3,5-dimethoxy-4-methylbenzoyl)(3-phenylpropyl)amino]pentanoic Acid] | 27 | 101 | 188 | 91
4 | COc1cc(C(=O)N(CCCc2ccccc2)CCOCC(=O)O)cc(OC)c1C [Example 6, {2-[(3,5-dimethoxy-4-methylbenzoyl)(3-phenylpropyl)amino]ethoxy}acetic Acid] | 126 | 130 | 723 | 80
5 | COc1cc(OC)cc(C(=O)N(CCCCC(=O)O)CCCc2ccccc2)c1 [Example 7, 5-[(3,5-dimethoxybenzoyl)(3-phenylpropyl)amino]pentanoic Acid] | 713 | 108 | 2630 | 71
6 | COc1ccc(C2(C(=O)N(CCCCC(=O)O)CCCc3ccccc3)CC2)cc1 [Example 8, 5-{[1-(4-methoxyphenyl)cyclopropane-1-carbonyl](3-phenylpropyl)amino}pentanoic Acid] | 691 | 112 | 1830 | 84
7 | COc1cc(C(=O)N(CCCCC(=O)O)CCCc2ccccc2)cc(OC)c1OC [Example 10, 5-[(3-phenylpropyl)(3,4,5-trimethoxybenzoyl)amino]pentanoic Acid] | 674 | 114 | 4840 | 70
8 | COc1cc(C(=O)N(CCCCC(=O)O)CCCc2ccccc2)cc(OC)c1Br [Example 20, 5-[(4-bromo-3,5-dimethoxybenzoyl)(3-phenylpropyl)amino]pentanoic Acid] | 43 | 101 | 169 | 89
9 | COc1cc(C(=O)N(CCCCC(=O)O)CCCc2ccccc2F)cc(OC)c1C [Example 32, 5-{(3,5-dimethoxy-4-methylbenzoyl)[3-(2-fluorophenyl)propyl]amino}pentanoic Acid] | 76 | 112 | 473 | 89
10 | COc1cc(C(=O)N(CCCCC(=O)O)CCCc2cccc(F)c2)cc(OC)c1C [Example 33, 5-{(3,5-dimethoxy-4-methylbenzoyl)[3-(3-fluorophenyl)propyl]amino}pentanoic Acid] | 71 | 110 | 215 | 84
11 | COc1cc(C(=O)N(CCCCC(=O)O)CCCc2ccc(F)cc2)cc(OC)c1C [Example 34, 5-{(3,5-dimethoxy-4-methylbenzoyl)[3-(4-fluorophenyl)propyl]amino}pentanoic Acid] | 391 | 115 | 786 | 77
12 | COc1cc(C(=O)N(CCCCC(=O)O)CCCc2ccccc2)cc(OC)c1C1CC1 [Example 35, 5-[(4-cyclopropyl-3,5-dimethoxybenzoyl)(3-phenylpropyl)amino]pentanoic Acid] | 13 | 103 | 107 | 92
13 | COc1cc(C(=O)N(CCCCC(=O)O)CCCc2ccccc2)cc(OC)c1C(F)(F)F [Example 37, 5-{[3,5-dimethoxy-4-(trifluoromethyl)benzoyl](3-phenylpropyl)amino}pentanoic Acid] | 231 | 122 | 479 | 81
14 | COc1cc(C(=O)N(CCCCC(=O)O)CCCc2cccc(Cl)c2)cc(OC)c1C [Example 38, 5-{[3-(3-chlorophenyl)propyl](3,5-dimethoxy-4-methylbenzoyl)amino}pentanoic Acid] | 26 | 114 | 108 | 91
15 | COc1cc(C(=O)N(CCCc2ccccc2)CCSCC(=O)O)cc(OC)c1C [Example 44, ({2-[(3,5-dimethoxy-4-methylbenzoyl)(3-phenylpropyl)amino]ethyl}sulfanyl)acetic Acid] | 69 | 114 | 410 | 91
16 | COc1cc(C(=O)N(CCCc2ccccc2)CCOCP(=O)(O)O)cc(OC)c1C [Example 50, ({2-[(3,5-dimethoxy-4-methylbenzoyl)(3-phenylpropyl)amino]ethoxy}methyl)phosphonic Acid] | 1 | 103 | 2 | 98
17 | COc1cc(C(=O)N(CCCc2ccccc2)CCCC(C)(C)C(=O)O)cc(OC)c1C [Example 57, 5-[(3,5-dimethoxy-4-methylbenzoyl)(3-phenylpropyl)amino]-2,2-dimethylpentanoic Acid] | 4 | 103 | 39 | 97
18 | COc1cc(C(=O)N(CCCc2ccccc2)CCSCCC(=O)O)cc(OC)c1C [Example 60, 3-({2-[(3,5-dimethoxy-4-methylbenzoyl)(3-phenylpropyl)amino]ethyl}sulfanyl)propanoic Acid] | 308 | 110 | 1550 | 84
19 | COc1cc(C(=O)N(CCCc2ccccc2)CCSC(C)CC(=O)O)cc(OC)c1C (stereo not shown) [Example 62, 3-({2-[(3,5-dimethoxy-4-methylbenzoyl)(3-phenylpropyl)amino]ethyl}sulfanyl)butanoic Acid] | 39 | 114 | 184 | 94
20 | COc1cc(OC)cc(C(=O)N(CCCCC(=O)O)CCCc2cccc(Cl)c2)c1 [Example 91, 5-{[3-(3-chlorophenyl)propyl](3,5-dimethoxybenzoyl)amino}pentanoic Acid] | 293 | 120 | 2090 | 84
21 | COc1cc(C(=O)N(CCCc2cccc(Cl)c2)CCOCC(=O)O)cc(OC)c1C [Example 109, (2-{[3-(3-chlorophenyl)propyl](3,5-dimethoxy-4-methylbenzoyl)amino}ethoxy)acetic Acid] | 139 | 111 | 1550 | 91
22 | COc1cc(C(=O)N(CCCc2ccccc2F)CCOCC(=O)O)cc(OC)c1C [Example 110, (2-{(3,5-dimethoxy-4-methylbenzoyl)[3-(2-fluorophenyl)propyl]amino}ethoxy)acetic Acid] | 706 | 110 | 1260 | 83
23 | COc1cc(C(=O)N(CCCCC(=O)NS(C)(=O)=O)CCCc2ccccc2)cc(OC)c1C [Example 111, N-{5-[(methanesulfonyl)amino]-5-oxopentyl}-3,5-dimethoxy-4-methyl-N-(3-phenylpropyl)benzamide] | 93 | 116 | 787 | 91
24 | COc1ccc(C2(C(=O)N(CCCc3ccccc3)CCSCC(=O)O)CC2)cc1 [Example 115, [(2-{[1-(4-methoxyphenyl)cyclopropane-1-carbonyl](3-phenylpropyl)amino}ethyl)sulfanyl]acetic Acid] | 1080 | 104 | 3540 | 67
25 | COc1cc(C(=O)N(CCCc2ccccc2F)CCSCC(=O)O)cc(OC)c1C [Example 116, [(2-{(3,5-dimethoxy-4-methylbenzoyl)[3-(2-fluorophenyl)propyl]amino}ethyl)sulfanyl]acetic Acid] | 281 | 108 | 173 | 85

From US20190119200A1, “TERTIARY AMIDES AND METHOD OF USE” (AbbVie Inc., priority 2016, published 2019)
